Measured values taken from the supplement of paper PMC10307832.

How the values were obtained:
Experiment in all cases: relative viability (nuclei count vs DMSO), 5 days (fraction); higher = more cells survive
NCI-H2347 = tested on: NCI-H2347
Method in brief: (§1)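 Lung cancer cell lines in 1536-well plates got either a single drug or a fixed anchor-drug dose together with five library-drug doses (not always all listed) in √10 steps, by pin tool, on the day after seeding. Nuclei were counted after 5 days, and relative viability is the treated-to-vehicle ratio of nuclei counts. Values are medians of duplicate plates.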

NCI-H650 = tested on: NCI-H650
Method in brief: as §1

COR-L23 = tested on: COR-L23
Method in brief: as §1

NCI-H727 = tested on: NCI-H727
Method in brief: as §1

PC-14 = tested on: PC-14
Method in brief: as §1

NCI-H838 = tested on: NCI-H838
Method in brief: as §1

NCI-H1650 = tested on: NCI-H1650
Method in brief: as §1

LU99A = tested on: LU99A
Method in brief: as §1

H3255 = tested on: H3255
Method in brief: as §1

A-427 = tested on: A-427
Method in brief: as §1

NCI-H1793 = tested on: NCI-H1793
Method in brief: as §1

LCLC-103H = tested on: LCLC-103H
Method in brief: as §1

LK-2 = tested on: LK-2
Method in brief: as §1

NCI-H1944 = tested on: NCI-H1944
Method in brief: as §1

NCI-H460 = tested on: NCI-H460
Method in brief: as §1

LCLC-97TM1 = tested on: LCLC-97TM1
Method in brief: as §1

201T = tested on: 201T
Method in brief: as §1

HCC-44 = tested on: HCC-44
Method in brief: as §1

NCI-H23 = tested on: NCI-H23
Method in brief: as §1

PC-3 [JPC-3] = tested on: PC-3 [JPC-3]
Method in brief: as §1

SW 900 = tested on: SW 900
Method in brief: as §1

SW 1573 = tested on: SW 1573
Method in brief: as §1

CC1(C)CCC(c2ccc(Cl)cc2)=C(CN2CCN(c3ccc(C(=O)NS(=O)(=O)c4ccc(N[C@H](CCN5CCOCC5)CSc5ccccc5)c(S(=O)(=O)C(F)(F)F)c4)cc3)CC2)C1 [Navitoclax] + CC(=O)Nc1cccc(-n2c(=O)n(C3CC3)c(=O)c3c(Nc4ccc(I)cc4F)n(C)c(=O)c(C)c32)c1 [Trametinib] (partner 0.02 µM)
relative viability (NCI-H2347; first compound 0.005 µM): 0.296
relative viability (NCI-H2347; first compound 0.01581 µM): 0.314
relative viability (NCI-H2347; first compound 0.05 µM): 0.26
relative viability (NCI-H2347; first compound 0.1581 µM): 0.32
relative viability (NCI-H2347; first compound 0.5 µM): 0.259
relative viability (NCI-H650; first compound 0.005 µM): 0.907
relative viability (NCI-H650; first compound 0.01581 µM): 1.2
relative viability (NCI-H650; first compound 0.05 µM): 0.872
relative viability (NCI-H650; first compound 0.1581 µM): 1.09
relative viability (NCI-H650; first compound 0.5 µM): 0.878
relative viability (COR-L23; first compound 0.005 µM): 0.6
relative viability (COR-L23; first compound 0.01581 µM): 0.601
relative viability (COR-L23; first compound 0.05 µM): 0.514
relative viability (COR-L23; first compound 0.1581 µM): 0.577
relative viability (COR-L23; first compound 0.5 µM): 0.61
relative viability (NCI-H727; first compound 0.005 µM): 0.406
relative viability (NCI-H727; first compound 0.01581 µM): 0.393
relative viability (NCI-H727; first compound 0.05 µM): 0.378
relative viability (NCI-H727; first compound 0.1581 µM): 0.399
relative viability (NCI-H727; first compound 0.5 µM): 0.403
relative viability (PC-14; first compound 0.005 µM): 0.804
relative viability (PC-14; first compound 0.01581 µM): 1.21
relative viability (PC-14; first compound 0.05 µM): 0.808
relative viability (PC-14; first compound 0.1581 µM): 0.801
relative viability (PC-14; first compound 0.5 µM): 0.695
relative viability (NCI-H838; first compound 0.005 µM): 0.422
relative viability (NCI-H838; first compound 0.01581 µM): 0.639
relative viability (NCI-H838; first compound 0.05 µM): 0.51
relative viability (NCI-H838; first compound 0.1581 µM): 0.559
relative viability (NCI-H838; first compound 0.5 µM): 0.555
relative viability (NCI-H1650; first compound 0.005 µM): 0.646
relative viability (NCI-H1650; first compound 0.01581 µM): 0.723
relative viability (NCI-H1650; first compound 0.05 µM): 0.489
relative viability (NCI-H1650; first compound 0.1581 µM): 0.439
relative viability (NCI-H1650; first compound 0.5 µM): 0.45
relative viability (LU99A; first compound 0.005 µM): 0.527
relative viability (LU99A; first compound 0.01581 µM): 0.597
relative viability (LU99A; first compound 0.1581 µM): 0.572
relative viability (LU99A; first compound 0.5 µM): 0.674
relative viability (H3255; first compound 0.005 µM): 0.529
relative viability (H3255; first compound 0.01581 µM): 0.7
relative viability (H3255; first compound 0.05 µM): 0.612
relative viability (H3255; first compound 0.1581 µM): 0.59
relative viability (H3255; first compound 0.5 µM): 0.582
relative viability (A-427; first compound 0.005 µM): 0.724
relative viability (A-427; first compound 0.01581 µM): 0.714
relative viability (A-427; first compound 0.05 µM): 0.624
relative viability (A-427; first compound 0.1581 µM): 0.599
relative viability (A-427; first compound 0.5 µM): 0.652
relative viability (NCI-H1793; first compound 0.005 µM): 0.373
relative viability (NCI-H1793; first compound 0.01581 µM): 0.439
relative viability (NCI-H1793; first compound 0.1581 µM): 0.467
relative viability (NCI-H1793; first compound 0.5 µM): 0.402
relative viability (LCLC-103H; first compound 0.005 µM): 0.637
relative viability (LCLC-103H; first compound 0.01581 µM): 0.731
relative viability (LCLC-103H; first compound 0.05 µM): 0.704
relative viability (LCLC-103H; first compound 0.1581 µM): 0.691
relative viability (LCLC-103H; first compound 0.5 µM): 0.685
relative viability (LK-2; first compound 0.005 µM): 0.76
relative viability (LK-2; first compound 0.01581 µM): 0.868
relative viability (LK-2; first compound 0.05 µM): 0.922
relative viability (LK-2; first compound 0.1581 µM): 0.807
relative viability (LK-2; first compound 0.5 µM): 0.695
relative viability (NCI-H1944; first compound 0.005 µM): 0.414
relative viability (NCI-H1944; first compound 0.01581 µM): 0.407
relative viability (NCI-H1944; first compound 0.1581 µM): 0.422
relative viability (NCI-H1944; first compound 0.5 µM): 0.373
relative viability (NCI-H460; first compound 0.005 µM): 0.135
relative viability (NCI-H460; first compound 0.01581 µM): 0.237
relative viability (NCI-H460; first compound 0.05 µM): 0.153
relative viability (NCI-H460; first compound 0.1581 µM): 0.188
relative viability (NCI-H460; first compound 0.5 µM): 0.215
relative viability (LCLC-97TM1; first compound 0.005 µM): 0.184
relative viability (LCLC-97TM1; first compound 0.01581 µM): 0.232
relative viability (LCLC-97TM1; first compound 0.05 µM): 0.186
relative viability (LCLC-97TM1; first compound 0.1581 µM): 0.211
relative viability (LCLC-97TM1; first compound 0.5 µM): 0.189
relative viability (201T; first compound 0.005 µM): 0.715
relative viability (201T; first compound 0.01581 µM): 0.784
relative viability (201T; first compound 0.05 µM): 0.741
relative viability (201T; first compound 0.1581 µM): 0.7
relative viability (201T; first compound 0.5 µM): 0.726
relative viability (HCC-44; first compound 0.005 µM): 1.1
relative viability (HCC-44; first compound 0.01581 µM): 1.05
relative viability (HCC-44; first compound 0.05 µM): 0.94
relative viability (HCC-44; first compound 0.1581 µM): 1.05
relative viability (HCC-44; first compound 0.5 µM): 1.11
relative viability (NCI-H23; first compound 0.005 µM): 0.338
relative viability (NCI-H23; first compound 0.01581 µM): 0.436
relative viability (NCI-H23; first compound 0.05 µM): 0.443
relative viability (NCI-H23; first compound 0.1581 µM): 0.357
relative viability (NCI-H23; first compound 0.5 µM): 0.412
relative viability (PC-3 [JPC-3]; first compound 0.005 µM): 0.674
relative viability (PC-3 [JPC-3]; first compound 0.01581 µM): 0.714
relative viability (PC-3 [JPC-3]; first compound 0.05 µM): 0.734
relative viability (PC-3 [JPC-3]; first compound 0.1581 µM): 0.668
relative viability (PC-3 [JPC-3]; first compound 0.5 µM): 0.603
relative viability (SW 900; first compound 0.005 µM): 0.706
relative viability (SW 900; first compound 0.01581 µM): 0.981
relative viability (SW 900; first compound 0.1581 µM): 0.828
relative viability (SW 900; first compound 0.5 µM): 0.81
relative viability (SW 1573; first compound 0.005 µM): 0.623
relative viability (SW 1573; first compound 0.01581 µM): 0.5
relative viability (SW 1573; first compound 0.05 µM): 0.654
relative viability (SW 1573; first compound 0.1581 µM): 0.475
relative viability (SW 1573; first compound 0.5 µM): 0.474
